For assay [1], the target named is T1, H. pylori urease (HPU) (Helicobacter pylori, UniProt P69996).
T1 construct: HPU was prepared as previously described; made in house
The assay is described as follows: biochemical. Conditions: read-out: Residual urease activity (percent of control), Fig 4A HPU, Pal 0.5 mM, thiols 1.25 mM, replicates. How it is done:
(§1) For the protection with thiols-containing compounds, the mixture consisting of 0.25 mg/mL urease (HPU or JBU), 0.5 mM Pal (for both HPU and JBU) and 1.25 mM thiols (DTT, GSH and L-cys) was incubated for 5, 10, 20, and 40 min at 37°C, respectively. The control sample instead of the protectors contained a proper volume of respective buffer.

The target of assay [2] is T2, jack bean urease (JBU) (Canavalia ensiformis, UniProt P07374).
T2 construct: Urease from jack bean (Canavalia ensiformis, JBU); purchased Sigma-Aldrich (St Louis, MO, USA) type III (catalogue number not given)
T2 sequence (P07374 whole entry, looked up): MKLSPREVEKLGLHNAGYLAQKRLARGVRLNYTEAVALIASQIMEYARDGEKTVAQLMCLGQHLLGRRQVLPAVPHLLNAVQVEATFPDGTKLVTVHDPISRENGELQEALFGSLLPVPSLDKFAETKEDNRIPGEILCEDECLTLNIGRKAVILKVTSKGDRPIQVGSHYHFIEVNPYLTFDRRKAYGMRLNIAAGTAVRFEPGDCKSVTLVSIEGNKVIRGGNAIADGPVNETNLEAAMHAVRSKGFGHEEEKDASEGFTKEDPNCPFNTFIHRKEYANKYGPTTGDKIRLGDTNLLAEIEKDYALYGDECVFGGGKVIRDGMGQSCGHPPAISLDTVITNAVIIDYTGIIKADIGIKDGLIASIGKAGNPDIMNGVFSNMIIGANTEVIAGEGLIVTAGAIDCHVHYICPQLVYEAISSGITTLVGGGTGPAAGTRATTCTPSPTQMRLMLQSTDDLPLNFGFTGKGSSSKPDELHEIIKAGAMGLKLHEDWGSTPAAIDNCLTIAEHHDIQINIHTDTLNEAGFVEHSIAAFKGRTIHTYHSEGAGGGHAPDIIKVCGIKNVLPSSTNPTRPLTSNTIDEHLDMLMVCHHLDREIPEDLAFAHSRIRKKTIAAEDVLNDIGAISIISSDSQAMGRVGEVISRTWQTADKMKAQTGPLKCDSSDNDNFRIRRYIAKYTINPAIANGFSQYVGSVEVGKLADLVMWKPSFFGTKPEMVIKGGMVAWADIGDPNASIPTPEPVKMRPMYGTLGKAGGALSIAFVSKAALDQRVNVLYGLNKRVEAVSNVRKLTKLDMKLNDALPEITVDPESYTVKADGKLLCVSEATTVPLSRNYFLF
The assay is described as follows: biochemical. The settings on record: read-out: Residual urease activity (percent of control), Fig 4B JBU, Pal 0.5 mM, thiols 1.25 mM, replicates. The procedure:
as §1

Assay [3] addresses T1, H. pylori urease (HPU). In words: biochemical. It is filed as biochemical. Conditions: read-out: Residual urease activity (percent of control), Fig 5A HPU, thiols 1.25 mM, Pal 0.5 mM, 20+20 min. The procedure:
(§2) The reaction mixture consisted of 0.25 mg/mL HPU or JBU, 0.5 mM Pal (for both HPU and JBU), and 1.25 mM thiols (DTT, GSH, or L-cys) in 20 mM HEPES buffer (pH 7.5). The components of the incubation mixture were mixed according to three procedures: (1) Urease was added to the mixture after a 20-min co-incubation of Pal with thiol. (2) Pal was added to the mixture after a 20-min co-incubation of urease with thiol. (3) Thiols were added to the mixture after a 20-min co-incubation of urease with Pal. The incubation mixture containing all components was incubated for further 20 min and the activity of urease was determined. The experiments were triply performed.

For assay [4], the target named is T2, jack bean urease (JBU). The assay is described as follows: biochemical. It is filed as biochemical. Conditions: read-out: Residual urease activity (percent of control), Fig 5B JBU, thiols 1.25 mM, Pal 0.5 mM, 20+20 min. How it is done: as §2
In assay [5] the target is T1, H. pylori urease (HPU). The assay is described as follows: Urease inhibition test (modified Berthelot method). Format: biochemical. Conditions: HPU 0.25 mg/mL; 20 min preincubation 37°C, pH 7.5; read-out: IC50. The procedure:
(§3) HPU was prepared as previously described. The standard urease assay mixture included 150 mM urea in 20 mM HEPES buffer (pH 7.5). After addition of small aliquots of enzyme-containing solution of urease, the assay ran for 20 min. The enzymatic activity was evaluated spectrophotometrically by detecting the ammonia concentration at 595 nm according to the modified Berthelot (phenol-hypochlorite) method. Urease activity was estimated with JBU as a standard, the specific activity of HPU was determined to be 17.0 U/mg. One unit of urease activity was defined as 1 μmol of ammonia released per min at 25°C. The amount of protein was determined by commercial Bradford Protein Assay Kit with BSA as a standard. The amount of ammonia released was decided from a standard curve. The activity of uninhibited urease was defined as the control activity of 100%.
(§4) Reaction mixtures comprising 0.25 mg/mL HPU or JBU and different concentrations of Pal or AHA at the volume ratio of 1:1, were incubated at 37°C in 20 mM HEPES buffer (pH 7.5) in the absence of urea. The reactions were initiated by mixing the urease and the inhibitor. The preincubation mixture was withdrawn at 20 min and immediately transferred into the standard assay mixtures for urease residual activity determination. Inhibition rate (%) was calculated following the formula: I % = (1-activity with inhibitors/activity without inhibitors) × 100%. The IC50 was expressed as the concentration of inhibitor that decreased urease activity by 50% and calculated by plotting the percent of inhibition. The experiments were triply performed.

The target of assay [6] is T2, jack bean urease (JBU). In words: Urease inhibition test (modified Berthelot method). Format: biochemical. Conditions: JBU 0.25 mg/mL; 20 min preincubation 37°C, pH 7.5; read-out: IC50. The procedure: as §3, §4

The structures appear in SMILES notation. Read-outs that look alike come from different tables or passages of the source.

T1 sequence (P14916 whole entry): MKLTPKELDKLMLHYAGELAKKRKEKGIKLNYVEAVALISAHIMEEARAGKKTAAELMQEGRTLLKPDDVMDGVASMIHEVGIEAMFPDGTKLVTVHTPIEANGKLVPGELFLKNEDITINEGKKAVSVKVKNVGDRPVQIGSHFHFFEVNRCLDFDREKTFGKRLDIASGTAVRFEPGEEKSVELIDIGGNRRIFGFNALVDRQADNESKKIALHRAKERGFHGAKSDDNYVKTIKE
T1 sequence (P69996 whole entry): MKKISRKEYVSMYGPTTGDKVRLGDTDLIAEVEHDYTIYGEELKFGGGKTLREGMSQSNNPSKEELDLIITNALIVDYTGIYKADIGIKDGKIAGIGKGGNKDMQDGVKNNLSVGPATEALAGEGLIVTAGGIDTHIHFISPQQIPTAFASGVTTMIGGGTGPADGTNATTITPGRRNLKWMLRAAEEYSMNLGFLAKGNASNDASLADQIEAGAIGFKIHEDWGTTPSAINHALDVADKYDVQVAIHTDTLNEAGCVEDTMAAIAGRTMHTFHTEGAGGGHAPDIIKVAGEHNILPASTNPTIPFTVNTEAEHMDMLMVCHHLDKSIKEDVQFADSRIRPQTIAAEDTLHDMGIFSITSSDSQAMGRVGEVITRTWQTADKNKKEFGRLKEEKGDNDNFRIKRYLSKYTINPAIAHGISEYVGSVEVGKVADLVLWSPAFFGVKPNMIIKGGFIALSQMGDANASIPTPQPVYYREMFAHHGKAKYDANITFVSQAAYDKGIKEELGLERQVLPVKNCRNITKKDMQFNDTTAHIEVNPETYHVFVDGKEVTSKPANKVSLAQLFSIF

`N[C@@H](CCC(=O)N[C@@H](CS)C(=O)NCC(=O)O)C(=O)O` [GSH, glutathione]: the activity at 1250 µM turned out to be 72.8% in assay [1] (5 min, 5 min incubation); 90.4% in assay [1] (10 min, 10 min incubation); 94.7% in assay [1] (20 min, 20 min incubation); 97.5% in assay [1] (40 min, 40 min incubation); 129% in assay [2] (5 min, 5 min incubation); 130% in assay [2] (10 min, 10 min incubation). In addition, the activity at 1250 µM in assay [2] (20 min, 20 min incubation) is 129%; in assay [2] (40 min, 40 min incubation), 146%; in assay [3] (order (Protector+Pal)+urease), 90.2%; in assay [3] (order (urease+Pal)+Protector) it was 85.2%; in assay [3] (order (urease+Protector)+Pal), 86.2%; in assay [4] (order (Protector+Pal)+urease), 139%. Besides, the activity at 1250 µM in assay [4] (order (urease+Pal)+Protector) worked out at 140%.
As to `CC(=O)NO` [AHA, Acetohydroxamic acid], the figures for the half-inhibitory concentration (IC50) in assay [5] and in assay [6] were 70 ± 10 µM and 20 µM, respectively.
As to `N[C@@H](CS)C(=O)O` [L-Cys, L-cysteine], the activity at 1250 µM in assay [1] (5 min, 5 min incubation) amounted to 118%; in assay [1] (10 min, 10 min incubation), 107%; in assay [1] (20 min, 20 min incubation) it was 109%; in assay [1] (40 min, 40 min incubation), 112%; in assay [2] (5 min, 5 min incubation) it was 102%; in assay [2] (10 min, 10 min incubation), 109%. Further, the activity at 1250 µM amounted to 117% in assay [2] (20 min, 20 min incubation); 150% in assay [2] (40 min, 40 min incubation); 83.2% in assay [3] (order (Protector+Pal)+urease); 82.4% in assay [3] (order (urease+Pal)+Protector); 105% in assay [3] (order (urease+Protector)+Pal); 147% in assay [4] (order (Protector+Pal)+urease). The activity at 1250 µM in assay [4] (order (urease+Protector)+Pal) came to 146%.

What is called IC50 is the concentration that inhibits the measured activity by half.

For the origin of these results see publication PMC5207512, “Inhibition of Helicobacter pylori and Its Associated Urease by Palmatine: Investigation on the Potential Mechanism” (PLoS ONE, 2017).
